{"source": "patent US20230048888A1", "about": "“USE OF TRIAZOLOTRIAZINE DERIVATIVE IN TREATMENT OF DISEASES” (ZHEJIANG VIMGREEN PHARMACEUTICALS, LTD., priority 2019, published 2023)", "key": {"[1]": {"test_system": "MPTP-induced Parkinson's disease", "experiment": "MPTP-induced mouse Parkinson's disease model, open field test", "type": "in vivo, C57BL/6 mice", "conditions": "open field 10 minutes", "excerpt": "By injecting the substantia nigra selective toxin MPTP, the mitochondria were intervened to induce lipid peroxidation for disturbing the membrane structure and affecting cell function, and finally the substantia nigra dopaminergic (DA) neurons were selectively destroyed, leading to the massive death of substantia nigra DA neurons, the massive loss of striatum tyrosine hydroxylase-positive fibers, and the significant decrease in the levels of striatum DA and its metabolites 3,4-dihydroxyphenylacetic acid and homovanillic acid. There are also the hyperplasia of the substantia nigra striatal microglia and astrocytes and the damage of locus coeruleus, hypothalamus and other areas, which are basically the same as those in patients with Parkinson's disease. The ameliorative effect of a test substance on the stiffness symptom of Parkinson's disease induced by MPTP in mice was evaluated.\nC57BL/6 male mice of 8 weeks old were selected. The 8-week-old C57 mice were intraperitoneally (i.p.) injected with a vehicle dissolved in saline (normal saline) or MPTP (30 mg/kg body weight) for 5 days to induce the Parkinson's disease.\nAt 0.5 hours after the last MPTP injection, two doses (10 mpk and 30 mpk) were administered by intragastric administration.\nAt 1.5 hours after the last MPTP injection, an open field test (total travel distance and number of standings) was performed for 10 minutes."}, "CT26 cells": {"test_system": "CT26 cells", "experiment": "CT26 murine colon cancer homotransplantation model", "type": "in vivo, BALB/c mice", "experimental": "The CT26 murine colon cancer homotransplantation model is a classic pharmaceutical effect evaluation model for colon cancer. It is constructed by subcutaneously inoculating CT26 to BALB/c mice. The test compounds were administrated to evaluate their inhibitory effects on tumor growth in the model.\nCT26 cells were cultured in an RPMI1640 culture solution containing 10% fetal bovine serum. The CT26 cells in the exponential growth phase were collected and resuspended in PBS to a suitable concentration for subcutaneous tumor inoculation in mice.\nFemale mice were subcutaneously inoculated with 5×10^5 CT26 cells on the right side. The day of inoculation was defined as Day 0. On the second day (Day 1) of […] cell inoculation, the mice were administered randomly according to body weight.\nTumor proliferation rate, T/C %, was a percentage ratio of tumor volume or tumor weight between the treatment group and the control group at a certain time point. It was calculated with a formula was as follows:\nT/C %=TTV/CTV×100% (TTV (TTV: the average TV of the treatment group at a specific time point;"}, "[2]": {"experiment": "Pharmacokinetic evaluation of Compound 22 in female BALB/c mice in different vehicles", "type": "in vivo", "conditions": "mouse, plasma, po, 100 mg/kg, 100 mg/kg p.o. single; for half-life: read-out: T½ (converted)", "experimental": "BALB/c mice, female, 7-9 weeks old (the age of mice at the start of the experiment), weight: 19.2-22.1 g, […] (34 mice plus another 10 surplus mice). They were purchased from Shanghai Lingchang Biotechnology Co., Ltd. (LC), with animal certificate number: 2013001835211. Rearing environment: SPF level.\nAfter single administration, plasma was collected from each group at 0.25 h, 0.5 h, 1 h, 2 h, 4 h, 6 h, 8 h and 24 h, with 3 mice at each time point, and the experiment was terminated after 24h. 10 remaining mice were used to collect blank plasma."}, "[3]": {"experiment": "Pharmacokinetics of Compound 40 and benzene sulfonate thereof in ICR mice, PO", "conditions": "mouse, in vivo, PO 100 mg/kg (based on free base), 40% Hp-β-CD"}, "[4]": {"test_system": "haloperidol-induced stiffness", "experiment": "Haloperidol-induced Wistar rat stiffness model (bar test, rearing)", "type": "in vivo, Wistar rats", "conditions": "10 mg/kg intragastric", "experimental": "Time of bar test: The stiffness of the rats was tested by the bar test. That is, a wooden bar with a diameter of 8 mm was fixed between 2 iron stands and was 10 cm from the bench top; and then, the rat's tail was grabbed to make its front paws rest on the wooden bar and its hind paws or buttocks on the ground. Generally, the rat needs to acclimate several times when it was tested for the first time. The time for the forelimbs to drop from the bar or the time for the hind limbs to leave the bench top were tested, each rat was tested 3 times. Number of standings: the number of standings of the rat was measured by the rearing test. That is, the rat was placed in a 27*52 cm cage and acclimate for 5 minutes, and the spontaneous activity behavior, i.e., the number of standings, of the rat within 10 minutes was recorded. When the rat's hind limbs stood with two forelimbs raised over the shoulders and touched the ground, one standing is counted, and the one forelimb lift was excluded. Generally, the rat would raise its forelimbs to touch the cage wall. If the rat raised its forelimbs over the shoulders several times without falling to the ground, only one standing was counted. The time of bar test was taken as a measurement index, including the average time and the maximum time. Long time indicates severe stiffness, short time indicates mild stiffness. After drug treatment, the shorter the time of bar test, the better the effect of the drug on relieving stiffness. The number of standings was counted by the rearing test. The more the number of standings, the more frequent the spontaneous exploration activity of the rat, and the lower the stiffness. The statistical analysis between groups was performed on the data by using Prism GraphPad 7.0 independent sample T test, and P<0.05 was considered as a significant difference."}, "[5]": {"conditions": "Group 1, vehicle 40% PEG400/60% water"}, "[6]": {"conditions": "Group 2, vehicle 40% (2-hydroxypropyl)-β-cyclodextrin"}}}
{"molecule": "Nc1nc(NCCc2ccc(NC3COC3)cc2)nc2nc(-c3ccco3)nn12", "note": "[Compound 22, 2-(furan-2-yl)-N5-(4-(oxetan-3-ylamino)phenethyl)-[1,2,4]triazolo[1,5-a][1,3,5]triazine-5,7-diamine]", "values": [{"measurement": "Moving distance (cm)", "setting": "[1]; 10 mg/kg p.o. once", "value": 647.0, "unit": "cm"}, {"measurement": "Number of standings", "setting": "[1]; 10 mg/kg p.o. once", "value": 18.3}, {"measurement": "Moving distance (cm)", "setting": "[1]; 30 mg/kg p.o. once", "value": 1107.3, "unit": "cm"}, {"measurement": "Number of standings", "setting": "[1]; 30 mg/kg p.o. once", "value": 31.0}, {"measurement": "T/C (%)", "setting": "CT26 cells; Day 26, 100 mg/kg p.o. QD", "value": 81, "unit": "%"}, {"measurement": "TGI (%)", "setting": "CT26 cells; Day 26, 100 mg/kg p.o. QD", "value": 19, "unit": "%"}, {"measurement": "Tumor volume", "setting": "CT26 cells; Day 26, 100 mg/kg p.o. QD, in mm³", "value": "1988.56 ± 325.70"}, {"measurement": "Clinical abnormalities during the dosage", "setting": "CT26 cells; p.o. QD × 25 days", "value": "no obvious clinical abnormalities were observed"}, {"measurement": "AUC(0-inf)", "setting": "[2]; [5]", "value": 16100, "unit": "ng·h/mL"}, {"measurement": "AUC(0-t)", "setting": "[2]; [5]", "value": 15900, "unit": "ng·h/mL"}, {"measurement": "Cmax", "setting": "[2]; [5]", "value": 2080, "unit": "ng/mL"}, {"measurement": "Tmax", "setting": "[2]; [5]", "value": 1, "unit": "h"}, {"measurement": "half-life", "setting": "[2]; [5]", "value": 3.04, "unit": "h"}, {"measurement": "AUC(0-inf)", "setting": "[2]; [6]", "value": 28500, "unit": "ng·h/mL"}, {"measurement": "AUC(0-t)", "setting": "[2]; [6]", "value": 28400, "unit": "ng·h/mL"}, {"measurement": "Cmax", "setting": "[2]; [6]", "value": 5580, "unit": "ng/mL"}, {"measurement": "Tmax", "setting": "[2]; [6]", "value": 0.5, "unit": "h"}, {"measurement": "half-life", "setting": "[2]; [6]", "value": 2.66, "unit": "h"}]}
{"molecule": "Cn1nnc(-c2ccc(CCNc3nc(N)n4nc(-c5ccco5)nc4n3)cc2)n1", "note": "[Compound 40, N5-(4-(2-methyl-2H-tetrazol-5-yl)phenethyl)-2-(furan-2-yl)-[1,2,4]triazolo[1,5-a][1,3,5]triazine-5,7-diamine]", "values": [{"measurement": "AUC(0-t)", "setting": "[3]", "value": 11900, "unit": "ng·h/mL"}, {"measurement": "Cmax", "setting": "[3]", "value": 2900, "unit": "ng/mL"}, {"measurement": "Tmax", "setting": "[3]", "value": 0.5, "unit": "h"}, {"measurement": "AUC(0-inf)", "setting": "[3]; read-out: AUCINF—pred", "value": 12100, "unit": "ng·h/mL"}, {"measurement": "half-life", "setting": "[3]; read-out: T½ (converted)", "value": 4.27, "unit": "h"}]}
{"molecule": "CCn1c(=O)c2c(nc(/C=C/c3ccc(OC)c(OC)c3)n2C)n(CC)c1=O", "note": "[Istradefylline, reference compound]", "values": [{"measurement": "Average on-bar time", "setting": "[4]", "value": "10.33 ± 1.58", "unit": "s"}, {"measurement": "Maximum on-bar time", "setting": "[4]", "value": "15.38 ± 2.75", "unit": "s"}, {"measurement": "Number of standings", "setting": "[4]; 1st hour after haloperidol", "value": "23.25 ± 2.86"}]}
